Results published in patent US8198285B2, “Pyrazine derivatives” (Astrazeneca AB, priority 2010, dated 2012).
Where a name gives a salt, the structure may show the parent alone.

Tests used:
[1] = molecular target: T1, cardiac Na+ channel, hNav1.5 (Homo sapiens, UniProt Q14524); assay: hNav1.5 IonWorks electrophysiology in CHO cells; format: cell-based; conditions: IonWorks Quattro, 3 Hz, room temperature
T1 construct: expressed in transfected cells; host or cells: Chinese hamster ovary K1 (CHO) cells
Experimental: The hNav1.5-expressing Chinese hamster ovary K1 (CHO) cells used has been described previously (Persson, F. et al, (2005), Journal of Cardiovascular Electrophysiology, 16, 329-341). These cells were grown to semi-confluence at 37° C. in a humidified environment (5% CO2) in F-12 Ham medium containing Glutamax™, 10% foetal calf serum and 1 mg/ml G418 (all Invitrogen). Prior to use, the monolayer was washed using a pre-warmed (37° C.) 3 ml aliquot of Versene 1:5000 (Invitrogen). After aspiration of this solution the flask was incubated at 37° C. with a further 3 ml of Versene 1:5000 for a period of 6 min. […] A 0.5 ml aliquot of cell suspension was removed and the number of viable cells (based on trypan blue exclusion) was determined in an automated cell counter (Cedex; Innovatis) so that the cell re-suspension volume could be adjusted with PBS to give the desired final cell concentration. […]
Pre- and post-scan hNav1.5 current amplitude was measured from the leak-subtracted traces by the IonWorks™ software by taking the average current during the end of the depolarising pulse to 0 mV (baseline current) and subtracting this from the peak inward current. […]

PIM3 = PIM3 (Homo sapiens, UniProt Q86V86); assay: Inhibitory activity against PIM3; format: biochemical

T1 sequence (Q14524 whole entry): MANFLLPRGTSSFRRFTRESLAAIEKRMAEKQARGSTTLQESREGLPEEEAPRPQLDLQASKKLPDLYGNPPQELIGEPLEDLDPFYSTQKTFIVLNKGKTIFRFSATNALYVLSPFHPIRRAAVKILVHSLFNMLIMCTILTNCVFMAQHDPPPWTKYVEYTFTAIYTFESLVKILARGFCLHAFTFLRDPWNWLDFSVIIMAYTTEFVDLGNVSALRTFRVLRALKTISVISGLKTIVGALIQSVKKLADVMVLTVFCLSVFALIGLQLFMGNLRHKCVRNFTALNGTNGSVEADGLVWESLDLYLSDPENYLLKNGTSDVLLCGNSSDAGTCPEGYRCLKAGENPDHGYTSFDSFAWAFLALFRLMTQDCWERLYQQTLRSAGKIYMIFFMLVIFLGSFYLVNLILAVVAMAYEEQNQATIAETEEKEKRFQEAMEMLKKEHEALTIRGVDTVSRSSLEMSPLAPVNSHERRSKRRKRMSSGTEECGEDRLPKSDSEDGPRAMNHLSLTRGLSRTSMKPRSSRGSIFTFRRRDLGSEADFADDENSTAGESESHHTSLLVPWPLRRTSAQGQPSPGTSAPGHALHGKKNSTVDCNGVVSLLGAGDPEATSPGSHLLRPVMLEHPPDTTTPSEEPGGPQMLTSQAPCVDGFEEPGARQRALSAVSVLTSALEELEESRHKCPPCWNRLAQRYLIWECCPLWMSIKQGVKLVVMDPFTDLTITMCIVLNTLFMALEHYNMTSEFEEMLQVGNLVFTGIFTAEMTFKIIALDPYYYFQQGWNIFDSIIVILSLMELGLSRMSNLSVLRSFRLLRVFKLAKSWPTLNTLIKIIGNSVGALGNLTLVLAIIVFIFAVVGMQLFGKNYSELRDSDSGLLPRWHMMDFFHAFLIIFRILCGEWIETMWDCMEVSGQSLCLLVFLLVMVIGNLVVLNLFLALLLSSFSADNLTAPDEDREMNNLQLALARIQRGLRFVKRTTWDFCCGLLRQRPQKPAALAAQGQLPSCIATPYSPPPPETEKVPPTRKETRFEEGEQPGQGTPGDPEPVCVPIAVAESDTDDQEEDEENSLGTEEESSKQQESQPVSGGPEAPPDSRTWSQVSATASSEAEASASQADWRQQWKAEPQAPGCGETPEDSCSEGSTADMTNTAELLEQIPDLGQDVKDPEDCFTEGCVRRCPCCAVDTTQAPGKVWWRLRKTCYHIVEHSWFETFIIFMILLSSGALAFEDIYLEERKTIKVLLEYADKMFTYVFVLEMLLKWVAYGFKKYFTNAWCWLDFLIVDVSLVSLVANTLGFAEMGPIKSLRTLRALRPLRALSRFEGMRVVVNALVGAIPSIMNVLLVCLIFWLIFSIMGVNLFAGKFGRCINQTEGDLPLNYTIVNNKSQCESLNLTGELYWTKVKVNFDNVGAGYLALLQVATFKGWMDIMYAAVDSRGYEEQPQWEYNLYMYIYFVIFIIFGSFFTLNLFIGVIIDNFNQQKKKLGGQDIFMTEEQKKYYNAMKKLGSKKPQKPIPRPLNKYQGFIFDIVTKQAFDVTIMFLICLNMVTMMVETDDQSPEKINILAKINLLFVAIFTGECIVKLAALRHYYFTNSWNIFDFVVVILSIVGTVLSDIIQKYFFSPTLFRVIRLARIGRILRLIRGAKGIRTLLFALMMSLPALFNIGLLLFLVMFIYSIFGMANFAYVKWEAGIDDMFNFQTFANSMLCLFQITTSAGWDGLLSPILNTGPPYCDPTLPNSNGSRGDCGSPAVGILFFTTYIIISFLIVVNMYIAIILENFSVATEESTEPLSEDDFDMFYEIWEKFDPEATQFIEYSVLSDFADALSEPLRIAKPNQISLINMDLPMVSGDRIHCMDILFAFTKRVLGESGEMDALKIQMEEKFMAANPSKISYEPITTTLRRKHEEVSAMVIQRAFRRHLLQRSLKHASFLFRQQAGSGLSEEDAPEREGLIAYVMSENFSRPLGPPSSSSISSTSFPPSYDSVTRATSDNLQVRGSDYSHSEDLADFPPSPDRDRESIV

For `COCCCNCCCc1ccc(-c2cnc(N)c(C(=O)Nc3cccnc3)n2)cc1` [Example 1, 3-Amino-6-(4-{3-[(3-methoxypropyl)amino]propyl}phenyl)-N-pyridin-3-ylpyrazine-2-carboxamide tri-hydrochloride], the IC50 [1] was 21.2 µM and the “Inhibitory activity against PIM3” value (PIM3) was “inhibitory activity”.
